Laboratory results published in patent US20060276407A1, “Methods of treating hepatitis C virus” (Schering Corporation, priority 2005, published 2006).
Read-outs that look alike come from different tables or passages of the source.

Test: Phase 1 rising-single-dose pharmacokinetic study in healthy adult subjects (Example 1)
Assay type: in vivo, human
Conditions: for half-life / AUC / Tmax / Cmax / Vd/F: human; for AUC: po; for DN AUC(l) / DN AUC(tf) / DN Cmax: dose-normalized (to 50 mg)
Description: A Phase 1, randomized, third-party-blind (within dose level), placebo-controlled, rising-single-dose study of compounds of Formulae I-XXVI was conducted in healthy adult subjects.
Nine subjects in each group received either compound of Formula Ia (n=6) or placebo (n=3). Those subjects randomized to active compound received one of the following doses of compound of Formula Ia: 50, 100, 200, 400, 600, or 800 mg.
On Day 1, at least 10 hours prior to compound administration, an overnight fast was maintained until 4 hours following treatment administration, after which lunch was served. During the fasting period, no food or fluid (except noncarbonated water) was permitted; furthermore, drinking water was prohibited from 2 hours predose to 2 hours postdose, with the exception of the approximately 240 mL administered with the treatments.
Blood samples (7 mL each) for the determination of compound of Formula Ia concentrations were collected immediately prior to dosing (0 hour), and at 0.25, 0.5, 0.75, 1, 1.5, 2, 3, 4, 5, 6, 8, 10, 12, 18, 24, 36, 48, 72, and 144 hours postdose. The blood samples were collected into tubes containing EDTA. The samples were separated by centrifugation at 4° C. for 15 minutes at 1500 g to obtain the plasma, and the plasma samples frozen at −20° C. until assayed.
Plasma concentrations of compound of Formula Ia were determined using a validated liquid chromatography tandem mass spectrometry (LC-MS/MS) method. The assay lower limit of quantitation (LLOQ) was 0.50 ng/mL, and the method was validated over the concentration range of 0.50 to 1000 ng/mL.
The mean and percent coefficients of variation (% CV) were calculated for the plasma concentrations of compound of Formula Ia at each time point. Concentration values less than the assay LLOQ were reported as and set to zero in the calculations and tables. The plasma concentration-time data for compound of Formula Ia were subjected to pharmacokinetic analysis by noncompartmental methods using WinNonlin software. Nominal sampling times were used for pharmacokinetic analysis.
For each subject, the following compound of Formula Ia pharmacokinetic parameters were determined: • Cmax Maximum observed plasma concentration • Tmax Time of maximum observed plasma concentration • tf Time of final quantifiable sample • AUC(tf) Area under the plasma concentration-time curve from time 0 to tf • AUC(l) Area under the plasma concentration-time curve from time 0 to infinity [AUC(l)=[…]+C(tf)estimated/k, where k and C(tf)estimated are terminal elimination rate constant and estimated concentration at final quantifiable sample, respectively] • t½ Terminal-phase half-life (t½=ln 2/k) • CL/F Apparent total body clearance (CL/F=Dose/AUC[l]) • Vd/F Apparent volume of distribution (Vd/F=CL/F*(t1/2/0.693))
Dose-adjusted (to 50 mg) Cmax, AUC(l), and AUC(tf) values were also calculated. Cmax, Tmax, and if were the observed values. The terminal phase rate constant (k) was calculated as the negative of the slope of the log-linear terminal portion of the plasma concentration-time curve using linear regression (at least three time points). The number of points needed to determine the terminal phase rate constant was selected by WinNonlin software.
Summary statistics, including means, standard deviations, and coefficients of variation (CV) expressed as a percent, were computed for the single-dose plasma compound of Formula Ia concentration data at each sampling time point and for the derived pharmacokinetic parameters for each dose level using a standard program based on SAS/STAT (Release 6.12; SAS Institute Inc., North Carolina).
The log-transformed dose-adjusted (to 50 mg) Cmax and AUC values of compound of Formula Ia were statistically analyzed using an analysis of variance (ANOVA) model. The effect due to treatment (dose) was extracted. Ninety-five percent confidence intervals (CIs) for the means at each dose level, based on the nontransformed data, were provided. […]

[1] = plasma, single oral dose 50 mg, mean, n = 6
[2] = plasma, single oral dose 100 mg, mean, n = 6
[3] = plasma, single oral dose 200 mg, mean, n = 6
[4] = plasma, single oral dose 400 mg, mean, n = 6
[5] = plasma, single oral dose 600 mg, mean, n = 6
[6] = plasma, single oral dose 800 mg, mean, n = 6
[7] = single oral dose 50 mg, mean, n = 6
[8] = single oral dose 100 mg, mean, n = 6
[9] = single oral dose 200 mg, mean, n = 6
[10] = single oral dose 400 mg, mean, n = 6
[11] = single oral dose 600 mg, mean, n = 6
[12] = single oral dose 800 mg, mean, n = 6

Compound: CC(C)(C)NC(=O)N[C@H](C(=O)N1C[C@H]2[C@@H]([C@H]1C(=O)NC(CC1CCC1)C(=O)C(N)=O)C2(C)C)C(C)(C)C (mixture of isomers) [Formula Ia, (1 R, 5S)-N-[3-Amino-1-(Cyclobutylmethyl)-2,3-Dioxopropyl]-3-[2(S)-[[[(1,1-Dimethylethyl)Amino]Carbonyl]Amino]-3,3-Dimethyl-1-Oxobutyl]-6,6-Dimethyl-3-Azabicyclo[3.1.0]Hexan-2(S)-Carboxamide]
- half-life (plasma, oral, 100-800 mg dose cohorts, read-out: mean terminal phase half-life (t½)): 7 to 15 h
- AUC (plasma, 50 mg, single oral dose 50 mg, mean, n = 6, read-out: AUC(l)): 181 ng·h/mL
- AUC (plasma, 50 mg, single oral dose 50 mg, mean, n = 6, read-out: AUC(tf)): 179 ng·h/mL
- AUC (plasma, 100 mg, single oral dose 100 mg, mean, n = 6, read-out: AUC(l)): 345 ng·h/mL
- AUC (plasma, 100 mg, single oral dose 100 mg, mean, n = 6, read-out: AUC(tf)): 337 ng·h/mL
- AUC (plasma, 200 mg, single oral dose 200 mg, mean, n = 6, read-out: AUC(l)): 846 ng·h/mL
- AUC (plasma, 200 mg, single oral dose 200 mg, mean, n = 6, read-out: AUC(tf)): 831 ng·h/mL
- AUC (plasma, 400 mg, single oral dose 400 mg, mean, n = 6, read-out: AUC(l)): 1560 ng·h/mL
- AUC (plasma, 400 mg, single oral dose 400 mg, mean, n = 6, read-out: AUC(tf)): 1530 ng·h/mL
- AUC (plasma, 600 mg, single oral dose 600 mg, mean, n = 6, read-out: AUC(l)): 2160 ng·h/mL
- AUC (plasma, 600 mg, single oral dose 600 mg, mean, n = 6, read-out: AUC(tf)): 2140 ng·h/mL
- AUC (plasma, 800 mg, single oral dose 800 mg, mean, n = 6, read-out: AUC(l)): 2320 ng·h/mL
- AUC (plasma, 800 mg, single oral dose 800 mg, mean, n = 6, read-out: AUC(tf)): 2300 ng·h/mL
- Tmax (plasma, across single oral doses 50-800 mg, read-out: median Tmax): 1 to 2.25 h
- Cmax [1]: 58.7 ng/mL
- Vd/F [1]: 1070 L
- Tmax (plasma, single oral dose 50 mg, median, n = 6, read-out: Tmax): 1.5 h
- Cmax [2]: 111 ng/mL
- Vd/F [2]: 2680 L
- half-life (plasma, single oral dose 100 mg, mean, n = 6, read-out: t½ (converted)): 6.84 h
- Tmax (plasma, single oral dose 100 mg, median, n = 6, read-out: Tmax): 2 h
- Cmax [3]: 281 ng/mL
- Vd/F [3]: 3840 L
- half-life (plasma, single oral dose 200 mg, mean, n = 6, read-out: t½ (converted)): 10.8 h
- Tmax (plasma, single oral dose 200 mg, median, n = 6, read-out: Tmax): 1 h
- Cmax [4]: 445 ng/mL
- Vd/F [4]: 5400 L
- half-life (plasma, single oral dose 400 mg, mean, n = 6, read-out: t½ (converted)): 15.4 h
- Tmax (plasma, single oral dose 400 mg, median, n = 6, read-out: Tmax): 1.75 h
- Cmax [5]: 528 ng/mL
- Vd/F [5]: 4110 L
- half-life (plasma, single oral dose 600 mg, mean, n = 6, read-out: t½ (converted)): 10.2 h
- Tmax (plasma, single oral dose 600 mg, median, n = 6, read-out: Tmax): 2.25 h
- Cmax [6]: 616 ng/mL
- Vd/F [6]: 5450 L
- half-life (plasma, single oral dose 800 mg, mean, n = 6, read-out: t½ (converted)): 10.1 h
- Tmax (plasma, single oral dose 800 mg, median, n = 6, read-out: Tmax): 1.25 h
- half-life (single oral dose 50 mg, mean, n = 6, value could not be well characterized because of low plasma concentrations in the terminal phase, read-out: t½ (converted)): 2.69 h
- DN AUC(l) (single oral dose 50 mg, mean): 181 ng·h/mL
- DN AUC(tf) (single oral dose 50 mg, mean): 179 ng·h/mL
- DN Cmax (single oral dose 50 mg, mean): 58.7 ng/mL
- CL/F [7]: 277 L/h
- tf (time of final quantifiable sample) [7]: 15.3 h
- DN AUC(l) (single oral dose 100 mg, mean): 172 ng·h/mL
- DN AUC(tf) (single oral dose 100 mg, mean): 169 ng·h/mL
- DN Cmax (single oral dose 100 mg, mean): 55.4 ng/mL
- CL/F [8]: 315 L/h
- tf (time of final quantifiable sample) [8]: 26 h
- DN AUC(l) (single oral dose 200 mg, mean): 212 ng·h/mL
- DN AUC(tf) (single oral dose 200 mg, mean): 208 ng·h/mL
- DN Cmax (single oral dose 200 mg, mean): 70.3 ng/mL
- CL/F [9]: 254 L/h
- tf (time of final quantifiable sample) [9]: 40.0 h
- DN AUC(l) (single oral dose 400 mg, mean): 195 ng·h/mL
- DN AUC(tf) (single oral dose 400 mg, mean): 191 ng·h/mL
- DN Cmax (single oral dose 400 mg, mean): 55.7 ng/mL
- CL/F [10]: 279 L/h
- tf (time of final quantifiable sample) [10]: 52.0 h
- DN AUC(l) (single oral dose 600 mg, mean): 180 ng·h/mL
- DN AUC(tf) (single oral dose 600 mg, mean): 178 ng·h/mL
- DN Cmax (single oral dose 600 mg, mean): 44.0 ng/mL
- CL/F [11]: 288 L/h
- tf (time of final quantifiable sample) [11]: 52 h
- DN AUC(l) (single oral dose 800 mg, mean): 145 ng·h/mL
- DN AUC(tf) (single oral dose 800 mg, mean): 144 ng·h/mL
- DN Cmax (single oral dose 800 mg, mean): 38.5 ng/mL
- CL/F [12]: 399 L/h
- tf (time of final quantifiable sample) [12]: 56 h
